Test results as given in ChEMBL document CHEMBL5537137, “Design, synthesis and biological evaluation of biaryl amide derivatives against SARS-CoV-2 with dual-target mechanism” (Eur J Med Chem, 2024).

What was measured:
in vitro = conditions: human, NCI-H460 cells
Description: Selectivity index, ratio of CC50 for cytotoxicity against human NCI-H460 cells to EC50 for antiviral activity against HCoV-OC43 VR-1558 infected in human NCI-H460 cells

[1] = Cytotoxicity against human NCI-H460 cells incubated for 72 hrs by CCK-8 assay
Human coronavirus OC43 = assay: microbe, parasite or virus in culture; conditions: Betacoronavirus 1, VR-1558, NCI-H460, 72 h
Description: Antiviral activity against HCoV-OC43 VR-1558 infected in human NCI-H460 cells assessed as inhibition of viral growth incubated for 72 hrs by CCK-8 assay

Structure (SMILES): CN1CCN(Cc2ccc(NC(=O)c3ccc(OCCCCl)c(C(F)(F)F)c3)cc2C(F)(F)F)CC1
- selectivity ratio (in vitro): 2
- CC50 at 72 h [1]: 6.2 µM
- EC50 (Human coronavirus OC43): 2.94 µM

Structure (SMILES): CN1CCN(Cc2ccc(NC(=O)c3ccc(OCCCCl)c([N+](=O)[O-])c3)cc2C(F)(F)F)CC1
- selectivity ratio (in vitro): 6.1
- CC50 at 72 h [1]: 15 µM
- EC50 (Human coronavirus OC43): 2.47 µM

Structure (SMILES): CN1CCN(Cc2ccc(NC(=O)c3ccc(OCCCCl)c(F)c3)cc2C(F)(F)F)CC1
- selectivity ratio (in vitro): 3
- CC50 at 72 h [1]: 13.4 µM
- EC50 (Human coronavirus OC43): 5.34 µM

Structure (SMILES): CC(C)Oc1ccc(C(=O)Nc2ccc(CN3CCN(C)CC3)c(C(F)(F)F)c2)cc1[N+](=O)[O-]
- selectivity ratio (in vitro): 5.4
- CC50 at 72 h [1]: 19.2 µM
- EC50 (Human coronavirus OC43): 3.54 µM

Structure (SMILES): CN(C)C1CN(Cc2ccc(NC(=O)c3ccc(OCCCCl)c([N+](=O)[O-])c3)cc2C(F)(F)F)C1
- selectivity ratio (in vitro): 6
- CC50 at 72 h [1]: 49.8 µM
- EC50 (Human coronavirus OC43): 8.64 µM

Structure (SMILES): CN1CCN(Cc2ccc(NC(=O)c3ccc(OCCCCl)c([N+](=O)[O-])c3)cn2)CC1
- selectivity ratio (in vitro): 2.3
- CC50 at 72 h [1]: 43.7 µM
- EC50 (Human coronavirus OC43): 19.2 µM

Structure (SMILES): CCC(=O)Nc1cc(C(=O)Nc2ccc(CN3CCN(C)CC3)c(C(F)(F)F)c2)ccc1OCCCCl
- selectivity ratio (in vitro): 4.73
- CC50 at 72 h [1]: 27.1 µM
- EC50 (Human coronavirus OC43): 5.74 µM

Structure (SMILES): CN1CCN(Cc2ccc(NC(=O)c3ccc(OCCCl)c([N+](=O)[O-])c3)cc2C(F)(F)F)CC1
- selectivity ratio (in vitro): 3.5
- CC50 at 72 h [1]: 13 µM
- EC50 (Human coronavirus OC43): 3.73 µM

Structure (SMILES): O=C(Nc1ccc(CN2CC(C(=O)O)C2)c(C(F)(F)F)c1)c1ccc(OCCCCl)c([N+](=O)[O-])c1
- CC50 at 72 h [1]: > 200 µM
- EC50 (Human coronavirus OC43): > 66.7 µM

Structure (SMILES): CN(C)C1CCN(Cc2ccc(NC(=O)c3ccc(OCCCCl)c([N+](=O)[O-])c3)cc2C(F)(F)F)C1 (centres undefined)
- selectivity ratio (in vitro): 2.9
- CC50 at 72 h [1]: 28.2 µM
- EC50 (Human coronavirus OC43): 9.76 µM

Structure (SMILES): CC1CN(Cc2ccc(NC(=O)c3ccc(OCCCCl)c([N+](=O)[O-])c3)cc2C(F)(F)F)CC(C)O1 (centres undefined)
- selectivity ratio (in vitro): 2
- CC50 at 72 h [1]: 4.69 µM
- EC50 (Human coronavirus OC43): 2.49 µM

Structure (SMILES): CN(C)C1CCN(Cc2ccc(NC(=O)c3ccc(OCCCCl)c([N+](=O)[O-])c3)cc2C(F)(F)F)CC1
- selectivity ratio (in vitro): 4.7
- CC50 at 72 h [1]: 18.5 µM
- EC50 (Human coronavirus OC43): 3.93 µM

Structure (SMILES): CN1CCN(Cc2ccc(NC(=O)c3ccc(OCCCCl)c([N+](=O)[O-])c3)cc2C#N)CC1
- selectivity ratio (in vitro): 11.2
- CC50 at 72 h [1]: 136 µM
- EC50 (Human coronavirus OC43): 12.1 µM

Structure (SMILES): CN1CCN(Cc2ccc(NC(=O)c3ccc(OCCCCl)c(S(N)(=O)=O)c3)cc2C(F)(F)F)CC1
- selectivity ratio (in vitro): 9.8
- CC50 at 72 h [1]: 40.4 µM
- EC50 (Human coronavirus OC43): 4.11 µM

Structure (SMILES): CN1CCN(CCCNC(=O)C2CN(Cc3ccc(NC(=O)c4ccc(OCCCCl)c([N+](=O)[O-])c4)cc3C(F)(F)F)C2)CC1
- selectivity ratio (in vitro): 3.2
- CC50 at 72 h [1]: 59.1 µM
- EC50 (Human coronavirus OC43): 18.6 µM

Structure (SMILES): CN(C)C1CCN(Cc2ccc(NC(=O)c3ccc(OCC4CC4)c([N+](=O)[O-])c3)cc2C(F)(F)F)CC1
- selectivity ratio (in vitro): 11
- CC50 at 72 h [1]: 14.2 µM
- EC50 (Human coronavirus OC43): 1.24 µM

Structure (SMILES): CN(C)C1CC(Oc2ccc(NC(=O)c3ccc(O)c([N+](=O)[O-])c3)cc2C(F)(F)F)C1 (centres undefined)
- selectivity ratio (in vitro): 7
- CC50 at 72 h [1]: 186 µM
- EC50 (Human coronavirus OC43): 27.2 µM

Structure (SMILES): CN1CCN(Cc2ccc(NC(=O)c3ccc(OCCF)c([N+](=O)[O-])c3)cc2C(F)(F)F)CC1
- selectivity ratio (in vitro): 9
- CC50 at 72 h [1]: 24.5 µM
- EC50 (Human coronavirus OC43): 2.64 µM

Structure (SMILES): CN(C)C1CC(Oc2ccc(NC(=O)c3ccc(OCCC(F)(F)F)c([N+](=O)[O-])c3)cc2C(F)(F)F)C1 (centres undefined)
- selectivity ratio (in vitro): 16
- CC50 at 72 h [1]: 31.3 µM
- EC50 (Human coronavirus OC43): 2.01 µM

Structure (SMILES): COc1ccc(C(=O)Nc2ccc(OC3CC(N(C)C)C3)c(C(F)(F)F)c2)cc1[N+](=O)[O-] (centres undefined)
- selectivity ratio (in vitro): 7
- CC50 at 72 h [1]: 139 µM
- EC50 (Human coronavirus OC43): 19.5 µM

Structure (SMILES): CN1CCN(Cc2ccc(NC(=O)c3ccc(OCCCCl)c(NS(C)(=O)=O)c3)cc2C(F)(F)F)CC1
- selectivity ratio (in vitro): 3
- CC50 at 72 h [1]: 38.5 µM
- EC50 (Human coronavirus OC43): 12.8 µM

Structure (SMILES): CN(C)C1CN(Cc2ccc(NC(=O)c3ccc(OCc4cc(C(F)(F)F)cc(C(F)(F)F)c4)c([N+](=O)[O-])c3)cc2C(F)(F)F)C1
- selectivity ratio (in vitro): < 1.7
- CC50 at 72 h [1]: 5.07 µM
- EC50 (Human coronavirus OC43): > 3.13 µM

Structure (SMILES): CN1CCN(Cc2ccc(NC(=O)c3ccc(F)c(C(F)(F)F)c3)cc2C(F)(F)F)CC1
- selectivity ratio (in vitro): 3
- CC50 at 72 h [1]: 14.5 µM
- EC50 (Human coronavirus OC43): 4.15 µM

Structure (SMILES): CN(C)C1CN(Cc2ccc(NC(=O)c3ccc(OCC(F)F)c([N+](=O)[O-])c3)cc2C(F)(F)F)C1
- selectivity ratio (in vitro): 8
- CC50 at 72 h [1]: 34.1 µM
- EC50 (Human coronavirus OC43): 4.51 µM

Structure (SMILES): CN1CCN(Cc2ccc(NC(=O)c3ccc(OCCCCl)c(S(=O)(=O)O)c3)cc2C(F)(F)F)CC1
- selectivity ratio (in vitro): 7
- CC50 at 72 h [1]: > 200 µM
- EC50 (Human coronavirus OC43): 36.8 µM

Structure (SMILES): CN1CCN(Cc2ccc(NC(=O)c3ccc(OO)c([N+](=O)[O-])c3)cc2C(F)(F)F)CC1
- selectivity ratio (in vitro): > 8
- CC50 at 72 h [1]: > 200 µM
- EC50 (Human coronavirus OC43): 26.2 µM

Structure (SMILES): CN(C)C1CC(Oc2ccc(NC(=O)c3ccc(OCCCl)c([N+](=O)[O-])c3)cc2C(F)(F)F)C1 (centres undefined)
- selectivity ratio (in vitro): 9.1
- CC50 at 72 h [1]: 9.94 µM
- EC50 (Human coronavirus OC43): 1.09 µM

Structure (SMILES): CN(C)C1CN(Cc2ccc(NC(=O)c3ccc(OCCF)c([N+](=O)[O-])c3)cc2C(F)(F)F)C1
- selectivity ratio (in vitro): 25.7
- CC50 at 72 h [1]: 75.2 µM
- EC50 (Human coronavirus OC43): 2.93 µM

Structure (SMILES): CN(C)C1CN(Cc2ccc(NC(=O)c3ccc(OCC4CC4)c([N+](=O)[O-])c3)cc2C(F)(F)F)C1
- selectivity ratio (in vitro): 14.5
- CC50 at 72 h [1]: 14.6 µM
- EC50 (Human coronavirus OC43): 1.01 µM

Structure (SMILES): COc1ccc(C(=O)Nc2ccc(CN3CCN(C)CC3)c(C(F)(F)F)c2)cc1S(N)(=O)=O
- selectivity ratio (in vitro): 6.17
- CC50 at 72 h [1]: 123 µM
- EC50 (Human coronavirus OC43): 19.9 µM

Structure (SMILES): CN(C)C1CC(Oc2ccc(NC(=O)c3ccc(OCC(F)F)c([N+](=O)[O-])c3)cc2C(F)(F)F)C1 (centres undefined)
- selectivity ratio (in vitro): 13
- CC50 at 72 h [1]: 34.3 µM
- EC50 (Human coronavirus OC43): 2.58 µM

Structure (SMILES): Cc1ccc(NC(=O)c2ccc(OCCCCl)c([N+](=O)[O-])c2)cc1C(F)(F)F
- selectivity ratio (in vitro): 21
- CC50 at 72 h [1]: 82.4 µM
- EC50 (Human coronavirus OC43): 3.83 µM

Structure (SMILES): CN(C)C1CC(Oc2ccc(NC(=O)c3ccc(OCCF)c([N+](=O)[O-])c3)cc2C(F)(F)F)C1 (centres undefined)
- selectivity ratio (in vitro): 15
- CC50 at 72 h [1]: 27.1 µM
- EC50 (Human coronavirus OC43): 1.79 µM

Structure (SMILES): COc1ccc(C(=O)Nc2ccc(CN3CC(N(C)C)C3)c(C(F)(F)F)c2)cc1[N+](=O)[O-]
- selectivity ratio (in vitro): > 17
- CC50 at 72 h [1]: > 200 µM
- EC50 (Human coronavirus OC43): 12.1 µM

Structure (SMILES): CCC(=O)Nc1cc(C(=O)Nc2ccc(CN3CC(N(C)C)C3)c(C(F)(F)F)c2)ccc1OCCCCl
- selectivity ratio (in vitro): 4.3
- CC50 at 72 h [1]: 96.2 µM
- EC50 (Human coronavirus OC43): 22.2 µM

Structure (SMILES): CN(C)C1CC(Oc2ccc(NC(=O)c3ccc(OCc4cc(C(F)(F)F)cc(C(F)(F)F)c4)c([N+](=O)[O-])c3)cc2C(F)(F)F)C1 (centres undefined)
- selectivity ratio (in vitro): 1
- CC50 at 72 h [1]: 17 µM
- EC50 (Human coronavirus OC43): 11.7 µM

Structure (SMILES): CC1CC(C)CN(CCCNC(=O)C2CN(Cc3ccc(NC(=O)c4ccc(OCCCCl)c([N+](=O)[O-])c4)cc3C(F)(F)F)C2)C1 (centres undefined)
- selectivity ratio (in vitro): 4.7
- CC50 at 72 h [1]: 14.9 µM
- EC50 (Human coronavirus OC43): 3.18 µM

Structure (SMILES): C=CCOc1ccc(C(=O)Nc2ccc(CN3CC(N(C)C)C3)c(C(F)(F)F)c2)cc1[N+](=O)[O-]
- selectivity ratio (in vitro): 4
- CC50 at 72 h [1]: 28.1 µM
- EC50 (Human coronavirus OC43): 7.61 µM

Structure (SMILES): CN1CCN(Cc2ccc(NC(=O)c3ccc(OCCCF)c([N+](=O)[O-])c3)cc2C(F)(F)F)CC1
- selectivity ratio (in vitro): 7
- CC50 at 72 h [1]: 17.8 µM
- EC50 (Human coronavirus OC43): 2.45 µM

Structure (SMILES): CN(C)C1CN(Cc2ccc(NC(=O)c3ccc(OCC45CC6CC(CC(C6)C4)C5)c([N+](=O)[O-])c3)cc2C(F)(F)F)C1
- selectivity ratio (in vitro): < 1.7
- CC50 at 72 h [1]: 4.63 µM
- EC50 (Human coronavirus OC43): > 3.13 µM

Structure (SMILES): COc1ccc(C(=O)Nc2ccc(CN3CCN(C)CC3)c(C(F)(F)F)c2)cc1[N+](=O)[O-]
- selectivity ratio (in vitro): 10.8
- CC50 at 72 h [1]: 30.4 µM
- EC50 (Human coronavirus OC43): 2.81 µM

Structure (SMILES): CCC(=O)Nc1cc(C(=O)Nc2ccc(CN3CCN(C)CC3)nc2)ccc1OCCCCl
- selectivity ratio (in vitro): 2
- CC50 at 72 h [1]: 82.7 µM
- EC50 (Human coronavirus OC43): 41.5 µM

Structure (SMILES): CN(C)C1CC(Oc2ccc(NC(=O)c3ccc(OCC4CC4)c([N+](=O)[O-])c3)cc2C(F)(F)F)C1 (centres undefined)
- selectivity ratio (in vitro): 7
- CC50 at 72 h [1]: 8.51 µM
- EC50 (Human coronavirus OC43): 1.24 µM

Structure (SMILES): CCOc1ccc(C(=O)Nc2ccc(OC3CC(N(C)C)C3)c(C(F)(F)F)c2)cc1[N+](=O)[O-] (centres undefined)
- selectivity ratio (in vitro): 17.9
- CC50 at 72 h [1]: 55.4 µM
- EC50 (Human coronavirus OC43): 3.09 µM

Structure (SMILES): CN(C)C1CC(Oc2ccc(NC(=O)c3ccc(OCC45CC6CC(CC(C6)C4)C5)c([N+](=O)[O-])c3)cc2C(F)(F)F)C1 (centres undefined)
- selectivity ratio (in vitro): < 1.7
- CC50 at 72 h [1]: 2.51 µM
- EC50 (Human coronavirus OC43): > 1.56 µM
